Among the data in ChEMBL document CHEMBL1150437, “Synthesis and neuraminidase inhibition studies of 4-azido, amino, and acetamido substituted sialosides” (Bioorg Med Chem Lett, 1994) are Ki values, retold here.

The experiment concerns unidentified influenza virus. The experiment is described as follows: Compound was tested for inhibition of Influenza neuraminidase. Type of experiment: functional, organism-based.

Broadly, the Ki is a measure of affinity in units of concentration, obtained from inhibition or displacement. A higher Ki goes with weaker binding. Turning to `CC(=O)NC1C(N)CC(SC(C)C2OC(O)C(O)C(O)C2O)(C(=O)O)OC1[C@H](O)[C@H](O)CO` (some centres not stated), the affinity corresponds to a Ki of 50 µM.
To `CC(=O)N[C@H]1[C@H]([C@H](O)[C@H](O)CO)O[C@@](OC[C@@H]2O[C@H](O)[C@@H](O)[C@@H](O)[C@H]2O)(C(=O)O)C[C@H]1N` belongs 150 µM.
